Measured values from a melting point compilation (Tetko et al.; mined from patent text by program, amines drawn as free bases though some values may be those of a salt).

| Structure (SMILES) | melting point |
| --- | --- |
| CC(C(N)=O)c1ccc2c(c1)C(=O)Cc1cc([N+](=O)[O-])ccc1S2 (stereo not drawn) | 207 to 209 °C |
| O=[N+]([O-])C(CO)(CO)c1cc(Br)cnc1Cl | 162 to 163 °C |
| NS(=O)(=O)c1ccc(OC2CCCCO2)s1 (stereo not drawn) | 90 to 92 °C |
| O[C@H]1COC(c2ccc(Cl)cc2)=N[C@@H]1c1ccccc1 (racemic) | 142 °C |
| CN(C)c1ccc(/C=C/c2c(F)cccc2F)c(N)c1 | 97 to 98 °C |
| CCC(CC)c1ccc(Cl)c2nc3n(c12)CCCC(=O)N3c1ccc(Cl)cc1Cl | 135 to 137 °C |
| CC(C)(C)Nc1c(NCc2ccncc2)c(=O)c1=O | 271 to 272 °C |
| CCCCCCCCCCCCCCCCCC[N+](=O)[O-] | 47 to 50 °C |
| O=C(O)Cc1ccc(CC2CCCCC2=O)cc1 (stereo not drawn) | 71.5 to 72.5 °C |
| CNC(=O)N1CC(Oc2cccc(Cl)c2)C1 | 140 to 141 °C |
| CC(Br)C(=O)Nc1ccc(Cl)cc1NC1CC1 (racemic) | 130 °C |
| O=C1OCCC12Oc1ccc([N+](=O)[O-])cc1C2=O (stereo not drawn) | 199 to 200 °C |
| COc1ccc(-c2c(/C=C/C(=O)O)ccc3cc(OC)ccc23)cc1 | 248 to 249 °C |
| Cn1ncc2c1-c1c(Oc3ccc(OCc4ccc5ccccc5n4)cc3)sc(C(N)=O)c1CC2 | 139 to 140 °C |
| COc1cc2c(-c3ccnc(Cl)c3)c(CO)c(CO)cc2cc1OC1CCCC1 | 200 to 201 °C |
| O=C1N(c2cccc(C(F)(F)F)c2)CC(CCl)C1(Cl)Cl (stereo not drawn) | 87 to 100 °C |
| CC(C)c1ccc2c(c1)c(SCC1CC1)c(CC(C)(C)C(=O)O)n2Cc1ccc(Cl)cc1 | 123 to 124 °C |
| Cc1ccc(-c2c(N)ncnc2OCCO)cc1 | 91.5 to 93.5 °C |
| CCOC(=O)c1ccc(NC(=O)c2ccc(OCCCCc3ccccc3)cc2)c(O)c1 | 156 to 158 °C |
| O=C(NCc1ccc2c(c1)OCO2)Nc1cc(N2CC(c3ccccc3)CC2=O)ccn1 (stereo not drawn) | 185 to 188 °C |
| O=C(O)C1=Cc2cc(-c3ccc(F)cc3)ccc2CC1 | 213 to 214 °C |
| S=C(NCCCN1CCN(Cc2ccc(Cl)cc2)CC1)NC1CCCCC1 | 127 to 128 °C |
| Nc1nc2c(ncn2[C@H]2CC[C@@H](CO)C2)c(=O)[nH]1 | 269 °C |
| CCOC(=O)C=CC=Cc1cccc([N+](=O)[O-])c1 | 100 to 101 °C |
| CNC(=O)c1cnn(-c2ccc(Cl)cc2Cl)c1C#N | 182 to 183 °C |

| Structure (SMILES) | melting point |
| --- | --- |
| COc1cc(OC(C)C)ccc1-c1c(OC(C)C)cccc1C(=O)O | 117 to 119 °C |
| CCN1C(=O)C(C)(C)C(=O)Nc2cc(C#N)ccc21 | 215 to 218 °C |
| O=[N+]([O-])c1cccc(C2C3=C(CCCS3)NC3=C2SCCC3)c1 | > 260 °C |
| O=C(Oc1ccccc1)N1CCC2(CC1)SC(c1cccc(F)c1)c1ccccc12 (stereo not drawn) | 134 to 142 °C |
| CC1(C)CCC(C)(C)c2cc(C=O)c(Br)cc21 | 114 °C |
| COC(=O)c1ccc(C(=O)OC)c(SCc2ccccc2)c1 | 90 to 93.5 °C |
| CSCCC(NC=O)C(N)=O (racemic) | 121 to 122 °C |
| CS(=O)(=O)Nc1ccc(N2CCN(c3cnccc3N)CC2)cc1 | 246 to 248 °C |
| O=C(Nc1cc(Cl)cc(Cl)c1)C(Cl)Cl | 133 to 135 °C |
| Cc1sc(-c2ccccc2)nc1COc1ccc(Cn2cc(CCC(=O)O)c(-c3ccccc3)c2)cc1 | 157 to 158 °C |
| CSC(=CC(=O)c1cnccn1)SC | 155 °C |
| COc1cc(OCCN2CCN(C)CC2)ccc1/C=C/c1cc(/C=C/c2ccc3cc[nH]c3c2)n[nH]1 | 134 to 142 °C |
| CCOC(=O)c1cn(Cc2ccc(Oc3ccccc3)cc2)nc1OCc1ccc(OCc2nc(-c3ccccc3)oc2C)c(OC)c1 | 127 to 128 °C |
| CNCC(=O)N1Cc2cccc3c2N(CC3)c2ccccc21 | 128 to 130 °C |
| CC(C)=CCc1cc(C=CC(=O)c2ccc(O)cc2O)ccc1O | 167 °C |
| COC(=O)c1cc(I)ccn1 | 73 to 74 °C |
| CCC1C(=O)c2c(cc(OC)c(Cl)c2Cl)C1c1ccccc1 (stereo not drawn) | 114 to 116 °C |
| CCOC(=O)c1cn(-c2cc(N(C)C(=O)OC(C)(C)C)c(F)cc2F)c2c(C)c(F)c(F)cc2c1=O | 217 to 218 °C |
| CC(Cl)(Cl)C(NC(=O)c1cccnc1)NC(=NC#N)Nc1ccc(Cl)nc1 (stereo not drawn) | 212 to 213 °C |
| CC(C)(C)c1ccc(C=CC(=O)c2ccc(N3CCN(c4ccncc4)CC3)cc2)cc1 | 213 to 214 °C |
| CC1CC(=O)c2cc(F)ccc2S1(=O)=O (stereo not drawn) | 113 to 114 °C |
| COc1ccc(OC)c(-c2nc3ncccc3[nH]2)c1 | 235 °C |
| CCCCCC/C(=C\c1ccccc1)CNc1cccc(-c2ccnc3c(C(=O)c4cccs4)cnn23)c1 | 110 to 115 °C |
| CC(C)(C)c1cc(C(=O)CCCCOc2ccc(C(=O)C(=O)O)cc2)cc(C(C)(C)C)c1O | 144 to 145 °C |
| COc1ccc(C(=O)CC2CCCCC2=O)cc1 (stereo not drawn) | 98 to 99 °C |

| Structure (SMILES) | melting point |
| --- | --- |
| Cc1ccc(-n2c(=O)n(OCc3ccccc3)c(=O)c3cc(F)c(N4CCCC4)nc32)cc1 | 192 to 194 °C |
| CC(=O)Nc1ccc(N2CCNC2=O)cc1 | 270 to 273 °C |
| CC(C)(C)c1cc(C(=O)NCCc2ccc(N)cc2)cc(C(C)(C)C)c1O | 193 to 195 °C |
| CCCCc1nc2c(N)nc3ccccc3c2n1CCCCS(C)(=O)=O | 164 to 165 °C |
| CCCNc1ccc2nc(NC(=O)c3ccc(C(C)(C)C)cc3)cn2n1 | 243 to 244 °C |
| CS(=O)(=O)Nc1c(O)ccc2c1CCCC2C1=NCCN1 (stereo not drawn) | 263 to 265 °C |
| CCCSC1=NSc2cc(C)cnc2N1Cc1ccc(-c2ccccc2-c2nnn[nH]2)cc1 | 158 to 160 °C |
| CC(=O)Oc1ccc2cc(-c3ccc(C(=O)O)cc3)ccc2c1 | 254 to 256 °C |
| CCC(CC)c1ccc(Cl)c2nc3n(c12)CCCCN3c1cc(C)cc2c1ncn2C | 259 to 260 °C |
| O=C(Nc1n[nH]c2cc(Cl)ccc12)c1cccs1 | 215 °C |
| COc1nc(Nc2cc(C)ccc2N)nc(OC)n1 | 180 to 183 °C |
| COC(=O)c1cncc(-c2ccc(OC)c([N+](=O)[O-])c2)c1 | 192 to 194 °C |
| CCCNC(=NC#N)Nc1cccnc1 | 164 to 165 °C |
| O=C(Nc1nc(-c2ccco2)c(C(=O)c2ccn(Cc3ccccc3)c(=O)c2)s1)c1ccncc1 | 288 to 291 °C |
| CCOc1ccc(NS(=O)(=O)c2ccc(NN=CCCCN3C(=O)c4ccccc4C3=O)cc2)cc1 | 156 to 158 °C |
| O=C1Nc2cc(NC(=O)c3c[nH]cc(-c4ccc(F)cc4)c3=O)c(F)cc2/C1=C/c1ccc[nH]1 | > 300 °C |
| O=C(c1ccncc1)[N+]1([O-])CCC(=C2c3ccccc3CCn3ccnc32)CC1 (stereo not drawn) | 155 to 159 °C |
| O=C1Nc2ccccc2C(c2ccc(Cl)cc2)CC1Br (stereo not drawn) | 194 to 198 °C |
| O=C1OC(=O)c2c1cccc2C(F)(F)F | 65 to 67 °C |
| CCc1c(NC(=O)c2ccc(Br)cc2)ccc2cc(CO)cnc12 | 202 to 204 °C |
| C=CCN1CCCCNC1=C[N+](=O)[O-] | 82 to 83 °C |
| CC(=O)NC[C@H]1CN(c2ccc(C(=O)c3cc(C#N)c4ccccn34)cc2)C(=O)O1 | 255 to 257 °C |
| COc1cc2c(Cl)c(C(N)=O)cnc2cc1F | 228 °C |
